According to patent US10457914B2, “Optimized methods for differentiation of cells into cells with hepatocyte and hepatocyte progenitor phenotypes, cells produced by the methods, and methods for using the cells” (priority 2008, dated 2019):

Tested on: rat MAPCs
Test: In vitro hepatic differentiation of rat MAPCs, read out by qRT-PCR
Type: cell-based
Method: Undifferentiated MAPCs were expanded at large scale until several million cells were obtained. Cells then were plated at 50,000-60,000 cells/cm^2 in Matrigel (2%) coated wells. Initially, cells were cultured in expansion medium until they reached 80-90% confluency 16 hours later. Then, cells were washed twice with PBS and the medium was switched to differentiation medium. Basal differentiation medium consisted of DMEM (60%), MCDB (40%), ascorbic acid (IX), penicillin/streptomycin (1×), beta-mercaptoethanol, ITS (0.25×), LA-BSA (0.25×) and dexamethasone (10^-6M). Understanding the molecular signals favoring liver development is essential for the development of a logical in vitro differentiation protocol to modulate stem cell differentiation towards the hepatic fate. With this in mind, different cytokines at variable concentrations and chronological orders were investigated for their hepatocyte inducing capacity in […]. Cytokines tested included Nodal, its co-receptor Cripto, ActivinA, Wnt3a, BMP4, bFGF, aFGF, FGF8b, EGF, Nicotinamide, heparan sulphate proteoglycan, Oncostatin M, HGF and Follistatin. All cytokines were purchased from R&D, Minneapolis, USA. Apart from the cytokines, medium components also play an important role in guiding cells towards a specific fate. […]

Molecule | expression of mature markers (albumin, TAT) (high concentration of dexamethasone together with low concentration of insulin in differentiation medium) | induction of differentiation (serum-free conditions, in the complete absence of serum cell death occurred)
insulin: medium component (ITS); a lower amount was used to avoid adipogenesis | enhanced expression of some mature markers | –
Wnt3a: recombinant cytokine, hepatic differentiation factor, 50 ng/ml in step 1 (protein, UniProt P56704 19-352, looked up) Protein Wnt-3a: SYPIWWSLAVGPQYSSLGSQPILCASIPGLVPKQLRFCRNYVEIMPSVAEGIKIGIQECQHQFRGRRWNCTTVHDSLAIFGPVLDKATRESAFVHAIASAGVAFAVTRSCAEGTAAICGCSSRHQGSPGKGWKWGGCSEDIEFGGMVSREFADARENRPDARSAMNRHNNEAGRQAIASHMHLKCKCHGLSGSCEVKTCWWSQPDFRAIGDFLKDKYDSASEMVVEKHRESRGWVETLRPRYTYFKVPTERDLVYYEASPNFCEPNPETGSFGTRDRTCNVSSHGIDGCDLLCCGRGHNARAERRREKCRCVFHWCCYVSCQECTRVYDVHTCK | – | differentiation was induced
